Measured values reported in US20250213700A1, “COMPOUNDS, COMPOSITIONS, AND METHODS FOR CELL-SPECIFIC PHARMACOLOGY” (Duke University, priority 2022, published 2025).

How the values were obtained:
AMPAR [1] = experiment: positive allosteric modulation of the AMPAR by CMPDA reagents; assay type: cell-based
Excerpt: To complete the bidirectional ionotropic toolkit, allosteric modulators of the AMPAR were explored. For many pharmaceuticals of this class, including cyclothiazide, two drug molecules are known to bind in close proximity, one on each side of the interface between adjacent ligand-binding domains. Thus, newer pharmaceuticals of this class were focused on, which can span the two binding sites simultaneously, reasoning that it would be easier to accommodate a single tether into the binding interface. In particular, CMPDA (phenyl-1,4-bisalkylsulfonamide) was focused on, owing to its structural simplicity and availability of an experimental atomic structure. […] A synthetic scheme to resynthesize CMPDA while installing a short PEG spacer domain at a point of attachment was devised to allow tether access from the allosteric binding site to free solution. […] Altering the electrostatic properties of the spacer domain was explored. In silico docking and experimental iteration to redesign the electronegative spacer (CCOCCOCC) into a polar neutral spacer (CBNCCCNC) was used, yielding CMPDA.2alkyne, which was converted into the full-length CMPDA.2DART.2.

AMPAR [2] = experiment: whole-mount retina, AMPAR-mediated evoked EPSC in retinal ganglion cells; assay type: cell-based, mouse; settings: 300 nM, 15 min
Description: (§1) (FIG. 6A) Viral strategy (top panel). […] Experimental overview (second panel from the top to bottom panel). Top: whole retina; synaptic current is evoked (stim) and recorded (voltage-clamp of dTomato+ RGC), with ionic and pharmaceutical conditions chosen to isolate the AMPAR or GABAAR. A 10 min baseline is followed by 15 min application of 300 nM Rx^DART.2+30 nM Alexa^647.1DART.2. […] (FIG. 6B) CMPDA.2^DART.2 (left). Electropositive spacer (PDB 3RNN). […] AMPAR structural model (middle) (composite of PDB 5WEO, 3RNN, and 1FTL). Cylinder depicts cell membrane. […] YM90K.1^DART.2 (right). Structural model (PDB 1FTL). […] (FIG. 6C) diazepam.1^DART.2 (left). Structural model (PDB 6HUP). […] GABAAR (middle) structural model (composite of PDB 6HUP and 6HUK). […] Structural model (PDB 6HUK).
(§2) Preparation of Retina: Mice were intravitreal injected AAV10 HaloTag™-dTomato to eyes. After 8-12 weeks, the mice killed by cervical dislocation. Both eyes were removed and dissected under a stereo-microscope. Retinas were isolated from the eyecups and placed in oxygenated (95% O2/5% CO2) cold-Ames medium (Sigma-Aldrich), supplemented with 21 mM NaHCO3. After the vitreous body was removed, a retina was cut into 3 pieces, leaving each retina piece attached to a filter paper with 2 mm hole by retina ganglion-cell-side-down. The pieces of retina were stored in bubbled Ames solution at room temperature, then transferred to recording chamber with retina ganglion-cell-side-up for recording.
(§3) Whole-cell patch-clamp recording: The brain slices or retinas were perfused with bubbled aCSF at 29-30° C. with a 2 ml/min flow rate. Recordings were made by whole cell patch recording techniques using a Multiclamp 700B amplifier (Molecular Devices, Axon Instruments Inc., Union City, CA). The signals were filtered at 10 KHz and acquired using Digitate 1440A and pClamp 10.7 (Molecular Devices). The recording pipettes (4 MΩ-6 MΩ) were filled with internal solutions. For GABAA receptor-mediated evoked inhibitory postsynaptic currents ([…]) recording, the pipettes filled with Cesium Chloride-based internal solution (in mM) 135 CsCl, 2 MgCl2, 0.5 EGTA, 10 HEPES, 4 Mg-ATP, 0.5 Na-GTP, 10 Na2-phosphocreatine, and QX314 (lidocaine N-ethyl bromide), pH adjusted to 7.3 with CsOH (290 mosm). For AMPA-receptor mediated evoked excitatory postsynaptic currents (eEPSCs) recording, the pipette solution contained (in mM) 130 CsMeS, 1 MgCl2, 0.5 EGTA, 10 HEPES, 4 Mg-ATP, 0.5 Na-GTP, 10 Na2-phosphocreatine, and 4 QX314, pH adjusted to 7.3 with CsOH (290 mosm). For experiment of brain slices and retinas, the eIPSCs or eEPSCs were elicited by electrical stimuli at 0.067 Hz in 0.3-ms duration and 150-300-ρA (60-70% maximum responses) stimulation intensity at a holding potential of −70 mV. The stimulating electrode was placed within 60-100 μm from the recording neuron under voltage-clamp mode. GABA-receptor mediated eIPSCs were isolated in the presence of DNQX ([…] AMPAR antagonist) and AP-V ([…] antagonist) in the bath solution. For AMPA-receptor mediated eEPSCs, added picrotoxin ([…], GABAAR antagonist) and AP-V ([…]) to the bath solution.

endogenous GABAARs = experiment: all-optical assay of GABAAR antagonism in primary neuronal culture; assay type: cell-based, rat; settings: ddHTP vs +HTP cells, 15 min, 15 uM GABA
Description: Cultured neuronal assays: Preparation of hippocampal cultures: Mixed glial and neuronal cultures were prepared from the hippocampus of postnatal day 0 to 1 Sprague-Dawley rat pups. Separate pools of dissociated cells were transfected via electroporation (LONZA, V4SP-3096) with plasmid constructs, and depending on assay directives, either plated individually or mixed with a different pool of electroporated cells after a 10 min recovery period. Cells were cultured on coverslips (Deckglaser) pre-treated with high molecular weight poly-D-lysine (Sigma, P7405; 0.05 mg/mL) in 24-well plates and maintained in NbActiv4 (BrainBits, Nb4-500) at 37 C, 5% CO2. Media was changed by half at DIV3 or 4 and then weekly thereafter; experiments were performed between DIV16 to DIV18.
Gabazine: Dissociated neurons were electroporated with constructs and cultured for 2 weeks. The assay was performed in the same BASE solution as described above, but with the addition of synaptic blockers CPP (NMDAR antagonist; Tocris) and NBQX (AMPAR antagonist; Abcam, ab120046) to isolate GABAR activity, and a small amount of GABA (GABAR agonist; Sigma) to ensure GABAR activity (=GABAR-BASE). […] Instead, a high dose of regular gabazine was used to completely silence any cells that may not have had realized full antagonism by the end of the assay. Imaging alignment, proof-reading and analysis were performed in a similar fashion to the AMPAR assay using MatLab.
It was next focused on blocking the GABAAR, a ubiquitous transducer of synaptic inhibition. […] The structure-activity literature of gabazine, a selective GABAAR antagonist, was explored. The core gabazine pharmacophore includes of a 3-amino, 6-phenoxy-pyridazine ring, with GABA embedded in the 2-position (2 butyric acid). Based on historical, low-potency predecessors of gabazine, a longer GABA moiety (2 pentanoic acid), and methyl substituents (e.g., 5-CH3) were explored (FIG. 2F). For each variant, the 6-phenoxy moiety was modified to make a gabazinealkyne module, which was click-conjugated to DART.2. Several variants were made, including gabazine.1^DART.2 (2 butyric acid, 5-H), gabazine.5DART.2 (2 pentanoic acid, 5-H), and gabazine.7DART.2 (2 pentanoic acid, 5-CH3). An all-optical assay of endogenous GABAARs in primary neuronal culture was then developed. […] Excitatory synapses were blocked, such that opto-stimulation with ChR2 became the only source of neural excitation.

GABAAR [3] = experiment: cerebellar slice voltage-clamp, tonic GABAAR current in granule cells; assay type: cell-based, mouse
Excerpt: (§4) (FIG. 4A) Validation of gabazine.1^DART.2 in cerebellar slice. Top: voltage-clamp schematic. Bottom: tonic GABAAR in granule cells expressing ^+HTP or ^ddHTP. […] Data are mean±SEM, cells normalized to baseline. (FIG. 4B) In vivo delivery of gabazine.1^DART.2 to cerebellar granule cells. Top right: schematic of experimental approach, GCaMP6f granule-cell activity obtained in the absence of sensory stimuli. Top left: example field of view, GCaMP6f signal averaged across trials. Bottom: example calcium traces (ΔF/F) in an awake ^+HTP mouse before (baseline) and after (1 μL of 1 μM gabazine.1^DART.2) infusion. (FIG. 4C) In vivo, 1 μL of 1 μM gabazine.1^DART.2 to ^+HTP mice. Color indicates ΔF/F, each row is one cell before (left) and after (right) gabazine.1^DART.2 infusion. […] (FIG. 4D) In vivo, 1 μL of 1 μM gabazine.1^DART.2 to ^ddHTP mice. Format as in panel C. […] (FIG. 4E) Validation of gabazine.7^DART.2 in VTA slice. Top: evoked-IPSC configuration. […] Data are mean±SEM, cells normalized to baseline. […] Data are mean±SEM, normalized to baseline speed of each animal.
Next, the feasibility of using DART.2 for GABAAR antagonism in live mice was explored. […] Whether this sparsity results from low excitatory drive, or high inhibitory GABAAR tone, has been difficult to address with prior tools. For example, one may attempt to reduce inhibition onto granule cells by silencing local GABA-producing neurons [golgi cells]. However, this would disinhibit local excitatory neurons [unipolar brush cells]. Thus the approach would inadvertently elevate excitatory drive onto granule cells, concomitant with the desired goal of reducing their inhibition, confounding interpretation. […] AAV DIO ^+HTPGPI or AAV DIO ^ddHTPGPI were expressed along with GCaMPxx in xxx-Cre mice; 2p. […] Next, in vivo experiments, using two-photon imaging of granule cells were performed.

cerebellar granule cells = experiment: in vivo two-photon GCaMP imaging of cerebellar granule cells; parameters: species or system mouse; settings: local infusion, 1 μL of 1 μM
Excerpt: as §4
Next, the feasibility of using DART.2 for GABAAR antagonism in live mice was explored. […] Whether this sparsity results from low excitatory drive, or high inhibitory GABAAR tone, has been difficult to address with prior tools. […]

GABAAR [4] = experiment: whole-mount retina, GABAAR-mediated evoked IPSC in retinal ganglion cells; assay type: cell-based, mouse; settings: 300 nM, 15 min
Description: as §1, §2, §3

SMILES | positive modulation of the AMPAR (AMPAR [1]) | AMPAR evoked EPSC integral (total charge transfer) boost, +HTP cells (AMPAR [2]) [fold] | AMPAR evoked EPSC, ddHTP cells (AMPAR [2]) | integrated EPSC charge transfer, +HTP RGCs (AMPAR [2]) | AMPAR evoked EPSC, ddHTP cells (AMPAR [2]; listed as CMPDA.2^DART.2) | DW (t=15 m) (endogenous GABAARs) | tonic GABAAR current, +HTP granule cells (GABAAR [3]; 100 nM) | HTL50 (half-maximal tethering concentration at 15 min) (GABAAR [3]; +HTP cells, tonic GABAAR current, read-out: HTL50 (t=15 m)) [nM] | IC50 (GABAAR [3]; read-out: Rx50, ddHTP cells, tonic GABAAR current) [nM] | GCaMP signals, ddHTP mice (cerebellar granule cells) | granule cell activity, +HTP mice (cerebellar granule cells) | GABAAR evoked IPSC block, +HTP cells (GABAAR [4]) | GABAAR evoked IPSC, ddHTP cells (GABAAR [4]) | GABAAR evoked IPSC block, +HTP cells (GABAAR [4]; listed as gabazine.1^DART.2)
C#CCOCCOCCOCCOCCOCCOCCC(CNS(=O)(=O)C(C)C)c1ccc(CCNS(=O)(=O)C(C)C)cc1 (stereo not drawn) [CMPDA.1alkyne, N-(2-{4-[23-(propane-2-sulfonamido)-4,7, 10, 13, 16, 19-hexaoxatricos-1-yn-22-yl]phenyl}ethyl)propane-2-sulfonamide] | retained its ability to positively modulate the AMPAR | – | – | – | – | – | – | – | – | – | – | – | – | –
COc1cc(CCCCl)ccc1CCOCCNC(=O)c1ccc(CNC(=O)CCOCCOCCOCCOCCOCCOCCOCCOCCOCCOCCOCCOCCOCCOCCOCCOCCOCCOCCOCCOCCOCCOCCOCCOCCOCCOCCOCCOCCOCCOCCOCCOCCOCCOCCOCCOCCn2cc(COCCNCCCNC(=O)CC(CNS(=O)(=O)C(C)C)c3ccc(CCNS(=O)(=O)C(C)C)cc3)nn2)cc1 (stereo not drawn) [CMPDA.2DART.2] | restored the ability of the reagent to bind and produce positive allosterically modulation of the AMPAR | 3 | No impact | three-fold increase | not ^ddHTP cells | – | – | – | – | – | – | – | – | –
COc1cc(CCCCl)ccc1CCOCCNC(=O)c1ccc(CNC(=O)CCOCCOCCOCCOCCOCCOCCOCCOCCOCCOCCOCCOCCOCCOCCOCCOCCOCCOCCOCCOCCOCCOCCOCCOCCOCCOCCOCCOCCOCCOCCOCCOCCOCCOCCOCCOCCn2cc(COCCOCCOCCOCCOCCOCCOCCCCCCOc3ccc(-c4ccc(=N)n(CCCC(=O)O)n4)cc3)nn2)cc1 [gabazine.1DART.2] | – | – | – | – | – | 500 | antagonizes the GABAAR in ^+HTP | ~50 | ~1000 | no impact on GCaMP signals | pronounced increase in +HTP granule cell activity | blocked the GABAAR-mediated IPSC | not on ^ddHTP cells | blocked on ^+HTP cells
